In assay [1] the target is T1, TNKS1 (Homo sapiens, UniProt O95271).
T1 construct: GST-tagged Tnks-1 (1023-1327 aa, prepared in-house); made in house
Put plainly: TNKS1 activity ELISA (autoparsylation assay). The conditions noted are these: GST-tagged Tnks-1 (1023-1327 aa), 10 μM bio-NAD, 1 hour at 30° C. It is filed as biochemical. Here is the method:
(§1) Description of the TNKS1 and TNKS2 ELISA Assay
(§2) Biochemical activity testing of TNKS 1 and 2: activity ELISA (Autoparsylation assay)
(§3) For analysis of autoparsylation activity of TNKS 1 and 2 an activity ELISA is performed: In the first step GST tagged TNKS is captured on a Glutathione coated plate. Then the activity assay with biotinylated NAD is performed in the absence/presence of the compounds. During the enzymatic reaction GST tagged TNKS transfers biotinylated ADP-ribose to itself from biotinylated NAD as co-substrate. For the detection streptavidin-HRP conjugate is added that binds to the biotinylated TNKS and is thereby captured to the plates. The amount of biotinylated resp. autoparsylated TNKS is detected with a luminescence substrate for HRP. The level of the luminescence signal correlates directly with the amount of autoparsylated TNKS and therefore with activity of TNKS.
(§4) The activity ELISA is performed in 384 well Glutathione coated microtiter plates (Express capture Glutathione coated plate, Biocat, Heidelberg, Germany). The plates are pre-equilibrated with PBS. […] The plates are washed 3 times with PBS-Tween-20. The wells are blocked by incubation at room temperature for 20 minutes with 50 μl blocking buffer (PBS, 0.05% Tween-20, 0.5% BSA). Afterwards the plates are washed 3 times with PBS-Tween-20. […] The reaction is stopped by 3 times washing with PBS-Tween-20. For the detection 50 μl of 20 ng/μl Streptavidin, HRP conjugate (MoBiTec, Göttingen, Germany) in PBS/0.05% Tween-20/0.01% BSA are added and the plates are incubated for 30 minutes at room temperature. After three times washing with PBS-Tween-20 50 μl of SuperSignal ELISA Femto Maximum sensitivity substrate solution (ThermoFisherScientific (Pierce), Bonn, Germany) are added. Following a 1 minute incubation at room temperature luminescence signals are measured with an Envision multimode reader (Perkin Elmer LAS Germany GmbH) at 700 nm. The full value used is the inhibitor-free reaction. […] The inhibitory values (IC50) are determined using either the program Symyx Assay Explorer® or Condosseo® from GeneData.
A general note: An ELISA detects its analyte on a solid surface through an enzyme-linked reagent.

In assay [2] the target is T2, TNKS2 (Homo sapiens, UniProt Q9H2K2).
T2 construct: GST-tagged Tnks-2 (873-1166 aa, prepared in-house); made in house
T2 sequence (Q9H2K2 873-1166): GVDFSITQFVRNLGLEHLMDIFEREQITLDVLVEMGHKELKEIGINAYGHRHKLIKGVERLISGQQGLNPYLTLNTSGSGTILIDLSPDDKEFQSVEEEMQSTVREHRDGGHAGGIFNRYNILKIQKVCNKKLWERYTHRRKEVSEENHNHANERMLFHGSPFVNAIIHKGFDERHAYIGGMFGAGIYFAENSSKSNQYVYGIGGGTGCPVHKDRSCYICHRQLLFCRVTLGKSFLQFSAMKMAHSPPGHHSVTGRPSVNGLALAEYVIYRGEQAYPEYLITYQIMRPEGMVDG
Put plainly: TNKS2 activity ELISA (autoparsylation assay). It is filed as biochemical. The settings on record: GST-tagged Tnks-2 (873-1166 aa), 10 μM bio-NAD, 1 hour at 30° C. Here is the method: as §1, §2, §3, §4

The test system of assay [3] is Tankyrases. The conditions noted are these: read-out: EC50 [M] TNKS cellular assay; increase of Axin2 level in colon carcinoma cell line DLD1, 24 hours.
Procedure: Measurement of Cellular Inhibition of Tankyrase
Cells of the colon carcinoma cell line DLD1 are plated in 96 well plates with 1.5×10^4 cells per well. Next day, cells are treated with a serial dilution of test compound in seven steps as triplicates with a final DMSO concentration of 0.3%. […] The amount of isolated Axin2 protein is determined in a Luminex^200 machine (Luminex Corporation) according to the manufacturer's instruction by counting 100 events per well. […] As controls cells are treated with solvent alone (neutral control) and with a Tankyrase reference inhibitor IWR-2 (3E−06 M) which refers as control for maximum increase of Axin2. For analysis, the obtained data are normalized against the untreated solvent control and fitted for determination of the EC50 values using the Assay Explorer software (Accelrys).

One may read the IC50 as the point on the concentration scale where inhibition reaches its midpoint. A lower IC50 goes with inhibition by little substance. Broadly, the EC50 is the concentration that produces a half-maximal response.

T1 sequence (O95271 1023-1327): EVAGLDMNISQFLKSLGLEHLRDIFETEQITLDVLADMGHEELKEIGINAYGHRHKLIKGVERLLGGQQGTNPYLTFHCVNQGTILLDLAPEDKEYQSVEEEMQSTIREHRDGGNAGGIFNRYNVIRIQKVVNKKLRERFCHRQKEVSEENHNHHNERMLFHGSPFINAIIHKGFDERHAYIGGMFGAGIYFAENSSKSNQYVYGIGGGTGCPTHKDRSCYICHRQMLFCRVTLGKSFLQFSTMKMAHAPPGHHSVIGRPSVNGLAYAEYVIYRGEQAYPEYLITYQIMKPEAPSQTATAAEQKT

For the compound `CN(C(=O)N1CCC(C(=O)c2ccc3cc(C(=O)O)n(C)c3c2)CC1)c1ccc(F)cc1` [Compound C1, 6-{1-[(4-Fluoro-phenyl)-methyl-carbamoyl]-piperidine-4-carbonyl}-1-methyl-1H-indole-2-carboxylic Acid], the results for the IC50 in assay [1] and in assay [2] were 3.5 nM and 1.1 nM, respectively. For the same compound, the EC50 in assay [3] came to 2.1e-07 M.

As to `COc1ccc(N(C)C(=O)N2CCC(C(=O)c3ccc4c(c3)cc(C(=O)O)n4C)CC2)cc1` [Compound C7, 5-{1-[(4-Methoxy-phenyl)-methyl-carbamoyl]-piperidine-4-carbonyl}-1-methyl-1H-indole-2-carboxylic Acid], the IC50 in assay [1] and in assay [2] was 1.3 nM each time. The EC50 in assay [3] stood at 6.31e-08 M.

Take `CCN(C(=O)N1CCC(C(=O)c2ccc3c(cnn3C)c2)CC1)c1cccc(C(=O)O)c1` [Compound C25, 3-{Ethyl-[4-(1-methyl-1H-indazole-5-carbonyl)-piperidine-1-carbonyl]-amino}-benzoic Acid]: the figures for the IC50 in assay [1] and in assay [2] were 1.8 nM and 0.89 nM, respectively. In assay [3], the EC50 came out at 4.87e-08 M.

For `CN(C(=O)N1CCC(C(=O)c2ccc3c(c2)ncn3C)CC1)c1ccc(C(=O)O)cc1` [Compound C30, 4-{Methyl-[4-(1-methyl-1H-benzimidazole-5-carbonyl)-piperidine-1-carbonyl]-amino}-benzoic Acid], the IC50 was determined as 17 nM in assay [1] and 10 nM in assay [2]. Moreover, the EC50 in assay [3] came out at 6e-06 M.

`CN(C(=O)N1CCC(C(=O)c2ccc3c(c2)cc(C(=O)O)n3C)CC1)c1ccc(F)cc1` [Compound C5, 5-{1-[(4-Fluoro-phenyl)-methyl-carbamoyl]-piperidine-4-carbonyl}-1-methyl-1H-indole-2-carboxylic acid]: the results for the IC50 in assay [1] and in assay [2] were 1 nM and 1.4 nM, respectively. In assay [3], the EC50 stood at 7.4e-08 M.

For `CN(C(=O)N1CCC(C(=O)c2ccc3nnn(C)c3c2)CC1)c1ccc(C(=O)O)cc1` [Compound C34, 4-{Methyl-[4-(3-methyl-3H-benzotriazole-5-carbonyl)-piperidine-1-carbonyl]-amino}-benzoic Acid], the IC50 in assay [1] was 2.6 nM; in assay [2], 1.1 nM. Moreover, the EC50 in assay [3] turned out to be 3.2e-06 M.

For the compound `CCN(C(=O)N1CCC(C(=O)c2ccc3ncn(C)c3c2)CC1)c1cccc(C(=O)O)c1` [Compound C29, 3-{Ethyl-[4-(3-methyl-3H-benzimidazole-5-carbonyl)-piperidine-1-carbonyl]-amino}-benzoic Acid], the IC50 in assay [1] was 3.4 nM; in assay [2], 3 nM. Moreover, in assay [3], the EC50 worked out at 4.75e-06 M.

Take `CN(C(=O)N1CCC(C(=O)c2ccc3cnn(C)c3c2)CC1)c1ccc(C(=O)O)cc1` [Compound C17, 4-{Methyl-[4-(1-methyl-1H-indazole-6-carbonyl)-piperidine-1-carbonyl]-amino}-benzoic Acid]: the IC50 in assay [1] was determined as 1.32 nM; in assay [2] it was 0.798 nM. Moreover, the EC50 in assay [3] was 2.07e-07 M.

Consider `CN(C(=O)N1CCC(C(=O)c2ccc3ncn(C)c3c2)CC1)c1ccc(C(=O)O)cc1` [Compound C26, 4-{Methyl-[4-(3-methyl-3H-benzoimidazole-5-carbonyl)-piperidine-1-carbonyl]-amino}-benzoic Acid], for which the IC50 came out at 1.5 nM in assay [1] and 0.62 nM in assay [2]. For the same compound, in assay [3], the EC50 is 1.1e-06 M.

As for `CCN(C(=O)N1CCC(C(=O)c2ccc3cc(C(=O)O)n(C)c3c2)CC1)c1ccc(F)cc1` [Compound C2, 6-{1-[Ethyl-(4-fluoro-phenyl)-carbamoyl]-piperidine-4-carbonyl}-1-methyl-1H-indole-2-carboxylic Acid], the values for the IC50 in assay [1] and in assay [2] were 0.67 nM and 0.49 nM, respectively. Also, the EC50 in assay [3] was found to be 1.9e-08 M.

On to `COc1ccc(N(C)C(=O)N2CCC(C(=O)c3ccc4c(C(=O)O)nn(C)c4c3)CC2)cc1` [Compound C11, 6-{1-[(4-Methoxy-phenyl)-methyl-carbamoyl]-piperidine-4-carbonyl}-1-methyl-1H-indazole-3-carboxylic Acid], for which the figures for the IC50 in assay [1] and in assay [2] were 1.4 nM and 0.74 nM, respectively. In addition, the EC50 in assay [3] came out at 3.9e-06 M.

For the compound `CCN(C(=O)N1CCC(C(=O)c2ccc3c(c2)c(C(=O)O)nn3C)CC1)c1ccc(OC)cc1` [Compound C16, 5-{1-[Ethyl-(4-methoxy-phenyl)-carbamoyl]-piperidine-4-carbonyl}-1-methyl-1H-indazole-3-carboxylic Acid], the IC50 in assay [1] was 9.7 nM; in assay [2] it was 4.5 nM. The EC50 in assay [3] turned out to be 9.7e-07 M.

In the case of `CN(C(=O)N1CCC(C(=O)c2ccc3c(cnn3C)c2)CC1)c1ccc(C(=O)O)cc1` [Compound C22, 4-{Methyl-[4-(1-methyl-1H-indazole-5-carbonyl)-piperidine-1-carbonyl]-amino}-benzoic Acid], the IC50 came out at 7.6 nM in assay [1] and 3.9 nM in assay [2]. Besides, the EC50 in assay [3] stood at 3.46e-07 M.

Turning to `CN(C(=O)N1CCC(C(=O)c2ccc3c(C(=O)O)nn(C)c3c2)CC1)c1ccc(F)cc1` [Compound C9, 6-{1-[(4-Fluoro-phenyl)-methyl-carbamoyl]-piperidine-4-carbonyl}-1-methyl-1H-indazole-3-carboxylic Acid], the IC50 in assay [1] was 3.29 nM; in assay [2], 1.66 nM. Also, in assay [3], the EC50 amounted to 4.9e-06 M.

Take `CCN(C(=O)N1CCC(C(=O)c2ccc3cnn(C)c3c2)CC1)c1cccc(C(=O)O)c1` [Compound C20, 3-{Ethyl-[4-(1-methyl-1H-indazole-6-carbonyl)-piperidine-1-carbonyl]-amino}-benzoic Acid]: the results for the IC50 in assay [1] and in assay [2] were 0.58 nM and 0.65 nM, respectively. For the same compound, the EC50 in assay [3] was determined as 1.93e-07 M.

Take `COc1ccc(N(C)C(=O)N2CCC(C(=O)c3ccc4cc(C(=O)O)n(C)c4c3)CC2)cc1` [Compound C3, 6-{1-[(4-Methoxy-phenyl)-methyl-carbamoyl]-piperidine-4-carbonyl}-1-methyl-1H-indole-2-carboxylic Acid]: the IC50 in assay [1] came out at 1.8 nM; in assay [2], 2.7 nM. Also, the EC50 in assay [3] came out at 1.3e-07 M.

Consider `COc1ccc(N(C)C(=O)N2CCC(C(=O)c3ccc4c(c3)c(C(=O)O)nn4C)CC2)cc1` [Compound C15, 5-{1-[(4-Methoxy-phenyl)-methyl-carbamoyl]-piperidine-4-carbonyl}-1-methyl-1H-indazole-3-carboxylic Acid], for which the IC50 came to 43 nM in assay [1] and 19 nM in assay [2]. Moreover, the EC50 in assay [3] was determined as 7.1e-06 M.

For the compound `CCN(C(=O)N1CCC(C(=O)c2ccc3c(c2)ncn3C)CC1)c1ccc(C(=O)O)cc1` [Compound C31, 4-{Ethyl-[4-(1-methyl-1H-benzimidazole-5-carbonyl)-piperidine-1-carbonyl]-amino}-benzoic Acid], the concentration for half-maximal inhibition (IC50) in assay [1] turned out to be 3.5 nM; in assay [2] it was 2.6 nM. The EC50 in assay [3] is 3.69e-07 M.

Consider `CN(C(=O)N1CCC(C(=O)c2ccc3c(c2)ncn3C)CC1)c1cccc(C(=O)O)c1` [Compound C32, 3-{Methyl-[4-(1-methyl-1H-benzimidazole-5-carbonyl)-piperidine-1-carbonyl]-amino}-benzoic Acid], for which the figures for the IC50 in assay [1] and in assay [2] were 19 nM and 7.8 nM, respectively.

For the compound `CCN(C(=O)N1CCC(C(=O)c2ccc3c(c2)cc(C(=O)O)n3C)CC1)c1ccc(F)cc1` [Compound C6, 5-{1-[Ethyl-(4-fluoro-phenyl)-carbamoyl]-piperidine-4-carbonyl}-1-methyl-1H-indole-2-carboxylic Acid], the figures for the half-maximal inhibitory concentration (IC50) in assay [1] and in assay [2] were 0.41 nM and 1.4 nM, respectively. For the same compound, the EC50 in assay [3] was 5.9e-09 M.

For `CN(C(=O)N1CCC(C(=O)c2ccc3c(c2)c(C(=O)O)nn3C)CC1)c1ccc(F)cc1` [Compound C13, 5-{1-[(4-Fluoro-phenyl)-methyl-carbamoyl]-piperidine-4-carbonyl}-1-methyl-1H-indazole-3-carboxylic Acid], the IC50 turned out to be 115 nM in assay [1] and 49.9 nM in assay [2].

On to `CN(C(=O)N1CCC(C(=O)c2ccc3ncn(C)c3c2)CC1)c1cccc(C(=O)O)c1` [Compound C28, 3-{Methyl-[4-(3-methyl-3H-benzimidazole-5-carbonyl)-piperidine-1-carbonyl]-amino}-benzoic Acid], for which the IC50 in assay [1] is 53 nM; in assay [2], 23 nM.

(Values after US20220096454A1, “CARBOXYLIC ACID DERIVATIVES” (Merck Patent GmbH, priority 2018, published 2022).)
